From patent publication US20140206681A1, “BTK INHIBITORS” (priority 2013, published 2014)

Columns and labels:
[1] = molecular target: T1, BTK enzyme (recombinant full-length BTK, hBTK) (Homo sapiens, UniProt Q06187); assay: BTK enzyme activity assay, LANCE TR-FRET; format: biochemical; settings: 50 pM hBTK, 2 μM biotin-A5-peptide, 25 μM ATP; 60 min compound & enzyme incubation; read-out: IC50 BTK activity value
T1 construct: recombinant protein from baculovirus-transfected Sf9 cells: full-length BTK, 6HIS-tag cleaved; 6HIS (cleaved yes); made in house; host or cells: baculovirus-transfected Sf9 cells

HeLa cells = assay: [3H]Adenosine uptake functional cellular assay; format: cell-based; settings: Homo sapiens, HeLa, accumulation of [3H]adenosine into HeLa cells; compound range 10 μM to […]; read-out: Adenosine uptake inhibition IC50
Procedure, shortened: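 Inhibition of adenosine uptake was measured in HeLa cells (ATCC CCL-2) by following accumulation of tritiated adenosine. Cells were kept overnight at 37° C. with 5% (v/v) CO2, then switched to 40 μL HBSS plus 5% (v/v) FBS. 20 μL of 500 nM [3H]adenosine was added, and uptake was counted on a Topcount NXT reader.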

T1 sequence (Q06187 whole entry): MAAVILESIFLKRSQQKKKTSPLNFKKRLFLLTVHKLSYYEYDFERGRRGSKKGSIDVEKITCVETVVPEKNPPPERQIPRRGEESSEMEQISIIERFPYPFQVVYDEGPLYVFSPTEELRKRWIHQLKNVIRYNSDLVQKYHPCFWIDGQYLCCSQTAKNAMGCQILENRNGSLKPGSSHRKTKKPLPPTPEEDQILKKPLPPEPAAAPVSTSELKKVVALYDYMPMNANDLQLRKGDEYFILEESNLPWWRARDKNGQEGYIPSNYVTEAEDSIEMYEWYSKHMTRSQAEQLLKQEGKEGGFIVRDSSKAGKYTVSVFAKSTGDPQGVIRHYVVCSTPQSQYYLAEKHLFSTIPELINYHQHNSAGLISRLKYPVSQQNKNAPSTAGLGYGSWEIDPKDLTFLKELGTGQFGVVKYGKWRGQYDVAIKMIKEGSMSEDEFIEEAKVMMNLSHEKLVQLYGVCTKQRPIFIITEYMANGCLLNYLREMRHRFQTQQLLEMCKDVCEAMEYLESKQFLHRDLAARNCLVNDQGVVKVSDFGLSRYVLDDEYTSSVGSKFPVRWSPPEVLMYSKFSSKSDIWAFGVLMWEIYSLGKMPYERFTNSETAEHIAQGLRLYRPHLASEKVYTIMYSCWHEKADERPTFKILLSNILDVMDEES

Row | SMILES | IC50 [1] [µM] | IC50 (HeLa cells) [µM]
1 | CCOc1cc(C(=O)Nc2cc(C3CC3)ccn2)c(F)cc1-c1nc([C@@H]2CC[C@H]3CCC(=O)N3C2)n2c(Cl)cnc(N)c12 [Example 136, 4-{8-amino-5-chloro-3-[(6R,8aS)-3-oxooctahydroindolizin-6-yl]imidazo[1,5-a]pyrazin-1-yl}-N-(4-cyclopropylpyridin-2-yl)-5-ethoxy-2-fluorobenzamide] | 0.00078 | 1.43
2 | CCOc1cc(C(=O)Nc2cc(C3CC3)ccn2)c(F)cc1-c1nc([C@@H]2CC[C@H]3CCC(=O)N3C2)n2ccnc(N)c12 [Example 137, 4-{8-amino-3-[(6R,8aS)-3-oxooctahydroindolizin-6-yl]imidazo[1,5-a]pyrazin-1-yl}-N-(4-cyclopropylpyridin-2-yl)-5-ethoxy-2-fluorobenzamide] | 0.002 | 1.2
3 | Cn1nc(NC(=O)c2ccc(-c3nc([C@@H]4CC[C@H]5CCC(=O)N5C4)n4ccnc(N)c34)c(OC3CC3)c2)cc1C(F)(F)F [Example 146, 4-{8-amino-3-[(6R,8aS)-3-oxooctahydroindolizin-6-yl]imidazo[1,5-a]pyrazin-1-yl}-3-(cyclopropyloxy)-N-[1-methyl-5-(trifluoromethyl)-1H-pyrazol-3-yl]benzamide] | 0.00059 | 5
4 | Nc1nccn2c([C@@H]3CC[C@H]4CCC(=O)N4C3)nc(-c3ccc(C(=O)Nc4cc(C5CC5)ccn4)cc3OC3CC3)c12 [Example 148, 4-{8-amino-3-[(6R,8aS)-3-oxooctahydroindolizin-6-yl]imidazo[1,5-a]pyrazin-1-yl}-3-(cyclopropyloxy)-N-(4-cyclopropylpyridin-2-yl)benzamide] | 0.0014 | 1.07
5 | Cn1nc(NC(=O)c2ccc(-c3nc([C@@H]4CC[C@H]5CCC(=O)N5C4)n4ccnc(N)c34)c(OC3CNC3)c2)cc1C(F)(F)F [Example 149, 4-{8-amino-3-[(6R,8aS)-3-oxooctahydroindolizin-6-yl]imidazo[1,5-a]pyrazin-1-yl}-3-(azetidin-3-yloxy)-N-[1-methyl-5-(trifluoromethyl)-1H-pyrazol-3-yl]benzamide] | 0.0967 | ≥ 10
6 | Cn1nc(NC(=O)c2cc(OC3CC3)c(-c3nc([C@@H]4CC[C@H]5CCC(=O)N5C4)n4c(Cl)cnc(N)c34)cc2F)cc1C(F)(F)F [Example 150, 4-{8-amino-5-chloro-3-[(6R,8aS)-3-oxooctahydroindolizin-6-yl]imidazo[1,5-a]pyrazin-1-yl}-5-(cyclopropyloxy)-2-fluoro-N-[1-methyl-5-(trifluoromethyl)-1H-pyrazol-3-yl]benzamide] | 0.0018 | 2.3
7 | CCOc1cc(C(=O)Nc2cc(C(F)(F)F)ccn2)c(F)cc1-c1nc([C@@H]2CC[C@H]3CCC(=O)N3C2)n2ccnc(N)c12 [Example 151, 4-{8-amino-3-[(6R,8aS)-3-oxooctahydroindolizin-6-yl]imidazo[1,5-a]pyrazin-1-yl}-5-ethoxy-2-fluoro-N-[4-(trifluoromethyl)pyridin-2-yl]benzamide] | 0.00075 | 1.12
8 | CCOc1cc(C(=O)Nc2cc(C(F)(F)F)n(C)n2)c(F)cc1-c1nc([C@@H]2CC[C@H]3CCC(=O)N3C2)n2ccnc(N)c12 [Example 152, 4-{8-amino-3-[(6R,8aS)-3-oxooctahydroindolizin-6-yl]imidazo[1,5-a]pyrazin-1-yl}-5-ethoxy-2-fluoro-N-[1-methyl-5-(trifluoromethyl)-1H-pyrazol-3-yl]benzamide] | 0.0013 | 1.89

Second part, the compound after the results:

Row | IC50 [1] [µM] | IC50 (HeLa cells) [µM] | SMILES
9 | 0.135 | 1.38 | Nc1nccn2c([C@@H]3CC[C@H]4CCC(=O)N4C3)nc(-c3ccc(C(=O)Nc4cc(C(F)(F)F)ccn4)cc3OC3CCCCC3)c12 [Example 138, 4-{8-amino-3-[(6R,8aS)-3-oxooctahydroindolizin-6-yl]imidazo[1,5-a]pyrazin-1-yl}-3-(cyclohexyloxy)-N-[4-(trifluoromethyl)pyridin-2-yl]benzamide]
10 | 0.0057 | 1.28 | CC(C)Oc1cc(C(=O)Nc2cc(C(F)(F)F)ccn2)ccc1-c1nc([C@@H]2CC[C@H]3CCC(=O)N3C2)n2ccnc(N)c12 [Example 139, 4-{8-amino-3-[(6R,8aS)-3-oxooctahydroindolizin-6-yl]imidazo[1,5-a]pyrazin-1-yl}-3-(1-methylethoxy)-N-[4-(trifluoromethyl)pyridin-2-yl]benzamide]
11 | 0.0046 | 0.756 | Nc1nccn2c([C@@H]3CC[C@H]4CCC(=O)N4C3)nc(-c3ccc(C(=O)Nc4cc(C(F)(F)F)ccn4)cc3OC3CCC3)c12 [Example 140, 4-{8-amino-3-[(6R,8aS)-3-oxooctahydroindolizin-6-yl]imidazo[1,5-a]pyrazin-1-yl}-3-(cyclobutyloxy)-N-[4-(trifluoromethyl)pyridin-2-yl]benzamide]
12 | 0.0237 | 0.824 | Nc1nccn2c([C@@H]3CC[C@H]4CCC(=O)N4C3)nc(-c3ccc(C(=O)Nc4cc(C(F)(F)F)ccn4)cc3OC3CCCC3)c12 [Example 141, 4-{8-amino-3-[(6R,8aS)-3-oxooctahydroindolizin-6-yl]imidazo[1,5-a]pyrazin-1-yl}-3-(cyclopentyloxy)-N-[4-(trifluoromethyl)pyridin-2-yl]benzamide]
13 | 0.0175 | 1.19 | CC(C)(C)COc1cc(C(=O)Nc2cc(C(F)(F)F)ccn2)ccc1-c1nc([C@@H]2CC[C@H]3CCC(=O)N3C2)n2ccnc(N)c12 [Example 142, 4-{8-amino-3-[(6R,8aS)-3-oxooctahydroindolizin-6-yl]imidazo[1,5-a]pyrazin-1-yl}-3-(2,2-dimethylpropoxy)-N-[4-(trifluoromethyl)pyridin-2-yl]benzamide]
14 | 0.00044 | 2.42 | Cn1nc(NC(=O)c2ccc(-c3nc([C@@H]4CC[C@H]5CCC(=O)N5C4)n4c(Cl)cnc(N)c34)c(OC3CC3)c2)cc1C(F)(F)F [Example 145, 4-{8-amino-5-chloro-3-[(6R,8aS)-3-oxooctahydroindolizin-6-yl]imidazo[1,5-a]pyrazin-1-yl}-3-(cyclopropyloxy)-N-[1-methyl-5-(trifluoromethyl)-1H-pyrazol-3-yl]benzamide]
15 | 0.00075 | 0.959 | Nc1ncc(Cl)n2c([C@@H]3CC[C@H]4CCC(=O)N4C3)nc(-c3ccc(C(=O)Nc4cc(C5CC5)ccn4)cc3OC3CC3)c12 [Example 147, 4-{8-amino-5-chloro-3-[(6R,8aS)-3-oxooctahydroindolizin-6-yl]imidazo[1,5-a]pyrazin-1-yl}-3-(cyclopropyloxy)-N-(4-cyclopropylpyridin-2-yl)benzamide]
16 | 0.00016 | 0.501 | Nc1ncc(Cl)n2c([C@@H]3CC[C@H]4CCC(=O)N4C3)nc(-c3ccc(C(=O)Nc4cc(C(F)(F)F)ccn4)cc3)c12 [Example 153, 4-{8-amino-5-chloro-3-[(6R,8aS)-3-oxooctahydroindolizin-6-yl]imidazo[1,5-a]pyrazin-1-yl}-N-[4-(trifluoromethyl)pyridin-2-yl]benzamide]
17 | 0.0039 | 1.53 | CC(=O)Oc1cc(C(=O)Nc2cc(C(F)(F)F)ccn2)ccc1-c1nc([C@@H]2CC[C@H]3CCC(=O)N3C2)n2ccnc(N)c12 [Example 155, 2-{8-amino-3-[(6R,8aS)-3-oxooctahydroindolizin-6-yl]imidazo[1,5-a]pyrazin-1-yl}-5-{[4-(trifluoromethyl)pyridin-2-yl]carbamoyl}phenyl acetate]
